Patent US5110904A (Abbott Laboratories, priority 1990, dated 1992)
Starred links: 1 amine or outer side, 2 acyl side, 3 side chain; linkers in the order of their positions; H or OH if unused. Non-standard residues stand in square brackets, D forms with d. Residues, ends and D or L forms follow the SMILES beside them. *: point of attachment. dAla(4-thiazolyl) = N[C@H](Cc1cscn1)C(=O)O; dPhe(4-Cl) = N[C@H](Cc1ccc(Cl)cc1)C(=O)O; d1Nal = N[C@H](Cc1cccc2ccccc12)C(=O)O; d2Nal = N[C@H](Cc1ccc2ccccc2c1)C(=O)O; X1 = CCNC[C@@H](C(=O)[*:2])N(C)[*:1]; Lys(iPr) = CC(C)NCCCC[C@H](N)C(=O)O; NMeY = CN[C@@H](Cc1ccc(O)cc1)C(=O)O; d3Pal = N[C@H](Cc1cccnc1)C(=O)O; NMeL = CN[C@@H](CC(C)C)C(=O)O; pGlu = O=C1CC[C@@H](C(=O)O)N1; Nicotinoyl = O=C(c1cccnc1)*; NMeS = CN[C@@H](CO)C(=O)O; azaGly = NNC(=O)O; Sar = CNCC(=O)O

Legend:
[1] = biological target: T1, LH release (Rattus norvegicus, UniProt P30969); experiment: In vitro LH release from dissociated rat pituitary cells (agonists); assay type: cell-based; details: negative log of concentration producing half-maximal release of LH, 3 hours at 37° C.
T1 sequence (P30969 1-327): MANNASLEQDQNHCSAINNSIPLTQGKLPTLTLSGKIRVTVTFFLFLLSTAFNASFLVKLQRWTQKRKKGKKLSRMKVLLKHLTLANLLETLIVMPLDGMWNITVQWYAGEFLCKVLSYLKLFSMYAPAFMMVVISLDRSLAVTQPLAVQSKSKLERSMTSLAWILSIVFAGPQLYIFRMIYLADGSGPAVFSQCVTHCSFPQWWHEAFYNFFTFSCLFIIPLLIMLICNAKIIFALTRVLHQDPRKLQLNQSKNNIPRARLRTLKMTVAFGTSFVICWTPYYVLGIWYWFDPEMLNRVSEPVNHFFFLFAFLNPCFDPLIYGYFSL

[2] = biological target: T1, LH release; experiment: In vivo LH release in castrated rats; details: dose producing half-maximal LH release, time integrated LH response; for ED50: rat, iv, i.v., read-out: ED50 ug/kg i.v.
Protocol: The compound to be tested is administered to castrated rats intraveneously and the serum LH concentration at various time points is measured by RIA. The time integrated LH response is calculated and the dose producing half-maximal LH release (ED50) is reported.

[3] = biological target: T2, LHRH receptors (Rattus norvegicus, UniProt P30969); experiment: Radioligand receptor binding assay, rat pituitary membranes; details: radioiodinated [D-Leu6-des Gly10]-LHRH ethyl amide 50 pM, 2 hours at 4° C., read-out: Receptor Binding pkI (converted)
T2 sequence (P30969 1-327): T1 sequence (P30969 1-327)
Protocol: The radioligand (50 pM), receptors, and compounds to be tested are coincubated for 2 hours at 4° C. Bound ligand is separated from free ligand via centrifugation and aspiration.

[4] = tested on: LH concentration in the blood; experiment: In vivo LH inhibition in male castrate rats; set-up: species or system rat; details: AUC of log(LHt/LHi) over 24 hours, 30 ug/kg subcutaneous bolus
Protocol: The compound to be tested is administered at 30 μg/kg subcutaneously by bolus injection to male castrate rats and blood samples are collected periodically over 24 hours. The AUC (area under the curve) of the LH supression data as a function of time is calculated using the formula log (LHt /LHi) wherein LHt is the LH concentration in the blood at time t and LHi is the initial baseline value for the concentration of LH in the blood. The AUC values are negative numbers.

SMILES	LH Release pD2 [1]	ED50 ug/kg i.v. [2] [µg/kg]	Ki [3] [nM]	ED50 [2] [µg/kg]	AUC (24 hr. after 30 ug/kg) [4]
CCNC(=O)[C@@H]1CCCN1C(=O)[C@H](CCCNC(=N)N)NC(=O)[C@H](CC(C)C)NC(=O)[C@@H](Cc1c[nH]c2ccccc12)NC(=O)[C@H](Cc1ccc(O)cc1)NC(=O)[C@H](CO)N(C)C(=O)[C@H](Cc1c[nH]c2ccccc12)NC(=O)[C@H](Cc1c[nH]cn1)NC(=O)CN(C)C(C)=O [Ex. 14, N-AcSar-His-Trp-N-Me-Ser-Tyr-D-Trp-Leu-Arg-Pro-NHEt] (Ac-[Sar]HW[NMeS]Y[dW]LRP-NHEt)	–	–	–	0.39	–
CC(=O)N[C@H](Cc1ccc2ccccc2c1)C(=O)N[C@H](Cc1ccc(Cl)cc1)C(=O)N[C@H](Cc1cccnc1)C(=O)N[C@@H](CO)C(=O)N(C)[C@@H](Cc1ccc(O)cc1)C(=O)N[C@H](CCCCNC(=O)c1cccnc1)C(=O)N(C)[C@@H](CC(C)C)C(=O)N[C@@H](CCCCNC(C)C)C(=O)N1CCC[C@H]1C(=O)N[C@H](C)C(N)=O [Ex. 67, N-Ac-D-2-Nal-D-4-Cl-Phe-D-3-Pal-Ser-N-Me-Tyr-D-Lys(N-epsilon-nicotinyl)-N-Me-Leu-Lys(N-epsilon-isopropyl)-Pro-D-AlaNH2] (Ac-[d2Nal][dPhe(4-Cl)][d3Pal]S[NMeY][dK](Nicotinoyl)[NMeL][Lys(iPr)]P[dA]-NH2)	–	–	0.0302	–	-400
CC(=O)NNC(=O)N[C@H](Cc1ccc(Cl)cc1)C(=O)N[C@H](Cc1cccc2ccccc12)C(=O)N[C@@H](CO)C(=O)N(C)[C@@H](Cc1ccc(O)cc1)C(=O)N[C@H](CCCCNC(=O)c1cccnc1)C(=O)N[C@@H](CC(C)C)C(=O)N[C@@H](CCCCNC(C)C)C(=O)N1CCC[C@H]1C(=O)N[C@H](C)C(N)=O [Ex. 65, N-Ac-alpha-Azagly-D-4-Cl-Phe-D-1-Nal-Ser-N-Me-Tyr-D-Lys(N-epsilon-nicotinyl)-Leu-Lys(N-epsilon-isopropyl)-Pro-D-AlaNH2] (Ac-[azaGly][dPhe(4-Cl)][d1Nal]S[NMeY][dK](Nicotinoyl)L[Lys(iPr)]P[dA]-NH2)	–	–	0.0575	–	-1114
CC(=O)N[C@H](Cc1ccc2ccccc2c1)C(=O)N[C@H](Cc1ccc(Cl)cc1)C(=O)N[C@H](Cc1cccnc1)C(=O)N[C@@H](CO)C(=O)N(C)[C@@H](Cc1ccc(O)cc1)C(=O)N[C@H](CCCCNC(=O)c1cccnc1)C(=O)N[C@@H](CC(C)C)C(=O)N[C@@H](CCCCNC(C)C)C(=O)N1CCC[C@H]1C(=O)N(C)CC(N)=O [Ex. 44, N-Ac-D-2-Nal-D-4-Cl-Phe-D-3-Pal-Ser-N-Me-Tyr-D-Lys(N-epsilon-nicotinyl)-Leu-Lys(N-epsilon-isopropyl)-Pro-SarNH2] (Ac-[d2Nal][dPhe(4-Cl)][d3Pal]S[NMeY][dK](Nicotinoyl)L[Lys(iPr)]P[Sar]-NH2)	–	–	0.0331	–	-571
CC(=O)N(C)CC(=O)N[C@H](Cc1ccc(Cl)cc1)C(=O)N[C@H](Cc1cccc2ccccc12)C(=O)N[C@@H](CO)C(=O)N(C)[C@@H](Cc1ccc(O)cc1)C(=O)N[C@H](CCCCNC(=O)c1cccnc1)C(=O)N[C@@H](CC(C)C)C(=O)N[C@@H](CCCCNC(C)C)C(=O)N1CCC[C@H]1C(=O)N[C@H](C)C(N)=O [Ex. 63, N-Ac-Sar-D-4-Cl-Phe-D-1-Nal-Ser-N-Me-Tyr-D-Lys(N-epsilon-nicotinyl)-Leu-Lys(N-epsilon-isopropyl)-Pro-D-AlaNH2] (Ac-[Sar][dPhe(4-Cl)][d1Nal]S[NMeY][dK](Nicotinoyl)L[Lys(iPr)]P[dA]-NH2)	–	–	0.0447	–	-707
CCNC(=O)[C@@H]1CCCN1C(=O)[C@H](CCCNC(=N)N)NC(=O)[C@H](CC(C)C)NC(=O)[C@@H](Cc1c[nH]c2ccccc12)NC(=O)[C@H](Cc1ccc(O)cc1)NC(=O)[C@H](CO)N(C)C(=O)[C@H](Cc1c[nH]c2ccccc12)NC(=O)[C@H](Cc1c[nH]cn1)NC(=O)[C@@H]1CCC(=O)N1 [Ex. 15, (pyro)Glu-His-Trp-N-Me-Ser-Tyr-D-Trp-Leu-Arg-Pro-NHEt]	–	–	–	1.38	–
CC(C)C[C@H](NC(=O)CNC(=O)[C@H](Cc1ccc(O)cc1)NC(=O)[C@H](CO)NC(=O)[C@H](Cc1c[nH]c2ccccc12)NC(=O)[C@H](Cc1c[nH]cn1)NC(=O)[C@@H]1CCC(=O)N1)C(=O)N[C@@H](CCCNC(=N)N)C(=O)N1CCC[C@H]1C(=O)NCC(N)=O [LHRH, reference compound]	–	–	–	100	–
CC(=O)N[C@H](Cc1ccc2ccccc2c1)C(=O)N[C@H](Cc1ccc(Cl)cc1)C(=O)N[C@H](Cc1cccnc1)C(=O)N[C@@H](CO)C(=O)N(C)[C@@H](Cc1ccc(O)cc1)C(=O)N[C@H](CCCCNC(=O)c1cccnc1)C(=O)N[C@@H](CC(C)C)C(=O)N[C@@H](CCCCNC(C)C)C(=O)N1CCC[C@H]1C(=O)N[C@H](C)C(N)=O [Ex. 38, N-Ac-D-2-Nal-D-4-Cl-Phe-D-3-Pal-Ser-N-Me-Tyr-D-Lys(N-epsilon-nicotinyl)-Leu-Lys(N-epsilon-isopropyl)-Pro-D-AlaNH2] (Ac-[d2Nal][dPhe(4-Cl)][d3Pal]S[NMeY][dK](Nicotinoyl)L[Lys(iPr)]P[dA]-NH2)	–	–	0.0316	–	-1000
CC(C)C[C@H](NC(=O)[C@@H](Cc1ccc2ccccc2c1)NC(=O)[C@H](Cc1ccc(O)cc1)NC(=O)[C@H](CO)N(C)C(=O)[C@H](Cc1c[nH]c2ccccc12)NC(=O)[C@H](Cc1c[nH]cn1)NC(=O)[C@@H]1CCC(=O)N1)C(=O)N[C@@H](CCCNC(=N)N)C(=O)N1CCC[C@H]1C(=O)NCC(N)=O [Ex. 3, (pyro)Glu-His-Trp-N-Me-Ser-Tyr-D-(2)-Nal-Leu-Arg-Pro-Gly-NH2]	–	–	–	0.129	–
CCNC(=O)CC[C@H](NC(=O)NCC)C(=O)N[C@@H](Cc1c[nH]cn1)C(=O)N[C@@H](Cc1c[nH]c2ccccc12)C(=O)N(C)[C@@H](CO)C(=O)N[C@@H](Cc1ccc(O)cc1)C(=O)N[C@H](Cc1c[nH]c2ccccc12)C(=O)N[C@@H](CC(C)C)C(=O)N[C@@H](CCCNC(=N)N)C(=O)N1CCC[C@H]1C(=O)NCC [Ex. 12, (2)-N-(Ethylaminocarbonyl)-(5)-N-ethylamido-Glu-His-Trp-N-Me-Ser-Tyr-D-Trp- Leu-Arg-Pro-NHEt]	9.31	–	1.05	9.9	–

The next lines start with results.

LH Release pD2 [1]	ED50 ug/kg i.v. [2] [µg/kg]	Ki [3] [nM]	SMILES	ED50 [2] [µg/kg]	AUC (24 hr. after 30 ug/kg) [4]
9.73	9.64	–	CCNC[C@@H](C(=O)N[C@@H](Cc1ccc(O)cc1)C(=O)N[C@H](Cc1c[nH]c2ccccc12)C(=O)N[C@@H](CC(C)C)C(=O)N[C@@H](CCCNC(=N)N)C(=O)N1CCC[C@H]1C(=O)NCC)N(C)C(=O)[C@H](Cc1c[nH]c2ccccc12)NC(=O)[C@H](Cc1c[nH]cn1)NC(=O)CN(C)C(C)=O [Ex. 7, N-Ac-Sar-His-Trp-(3)-N-Et-(2)-N-Me-Dap-Tyr-D-Trp-Leu-Arg-Pro-NHEt] (Ac-[Sar]HW[X1]Y[dW]LRP-NHEt)	–	–
9.43	–	–	CCNC(=O)[C@@H]1CCCN1C(=O)[C@H](CCCNC(=N)N)NC(=O)[C@H](CC(C)C)NC(=O)[C@@H](CC(C)C)NC(=O)[C@H](Cc1ccc(O)cc1)NC(=O)[C@H](CO)N(C)C(=O)[C@H](Cc1c[nH]c2ccccc12)NC(=O)[C@H](Cc1c[nH]cn1)NC(=O)[C@@H]1CCC(=O)N1 [Ex. 1, (pyro)Glu-His-Trp-N-Me-Ser-Tyr-D-Leu-Leu-Arg-Pro-NHEt] ([pGlu]HW[NMeS]Y[dL]LRP-NHEt)	7.2	–
–	–	0.0339	CC(=O)N[C@H](Cc1ccc2ccccc2c1)C(=O)N[C@H](Cc1ccc(Cl)cc1)C(=O)N[C@H](Cc1cscn1)C(=O)N[C@@H](CO)C(=O)N(C)[C@@H](Cc1ccc(O)cc1)C(=O)N[C@H](CCCCNC(=O)c1cccnc1)C(=O)N[C@@H](CC(C)C)C(=O)N[C@@H](CCCCNC(C)C)C(=O)N1CCC[C@H]1C(=O)N[C@H](C)C(N)=O [Ex. 43, N-Ac-D-2-Nal-D-4-Cl-Phe-D-4-Thiaz-Ser-N-Me-Tyr-D-Lys-(N-epsilon-nicotinyl)-Leu-Lys(N-epsilon-isopropyl)-Pro-D-AlaNH2] (Ac-[d2Nal][dPhe(4-Cl)][dAla(4-thiazolyl)]S[NMeY][dK](Nicotinoyl)L[Lys(iPr)]P[dA]-NH2)	–	-337
